Test results published in ChEMBL document CHEMBL1201862, “PubChem BioAssay data set” (2004).
Active and inactive are the calls of the source.

Key:
[1] = BioA aminotransferase inhibition, coupled fluorescent readout – biochemical, coupled fluorescence displacement, 20-point, dry powder, dose response (AID 743357); type: functional
INS1 = assay: INS-1E survival protection against cytokine death – cell-based, luminescence, retest, dose response (AID 449756); type: functional; settings: Rattus norvegicus;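 further: cell death triggered by IL-1 beta plus TNF-alpha plus IFN-gamma mixture; protective hits raise ATP signal compared with cytokine alone wells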
[2] = target: T1, Replicative DNA helicase DnaB (Mycobacterium tuberculosis, UniProt P9WMR3); assay: DnaB intein splicing inhibitors, dose response, biochemical, cell-free fluorescence (AID 449749); type: functional
T1 sequence (P9WMR3 whole entry): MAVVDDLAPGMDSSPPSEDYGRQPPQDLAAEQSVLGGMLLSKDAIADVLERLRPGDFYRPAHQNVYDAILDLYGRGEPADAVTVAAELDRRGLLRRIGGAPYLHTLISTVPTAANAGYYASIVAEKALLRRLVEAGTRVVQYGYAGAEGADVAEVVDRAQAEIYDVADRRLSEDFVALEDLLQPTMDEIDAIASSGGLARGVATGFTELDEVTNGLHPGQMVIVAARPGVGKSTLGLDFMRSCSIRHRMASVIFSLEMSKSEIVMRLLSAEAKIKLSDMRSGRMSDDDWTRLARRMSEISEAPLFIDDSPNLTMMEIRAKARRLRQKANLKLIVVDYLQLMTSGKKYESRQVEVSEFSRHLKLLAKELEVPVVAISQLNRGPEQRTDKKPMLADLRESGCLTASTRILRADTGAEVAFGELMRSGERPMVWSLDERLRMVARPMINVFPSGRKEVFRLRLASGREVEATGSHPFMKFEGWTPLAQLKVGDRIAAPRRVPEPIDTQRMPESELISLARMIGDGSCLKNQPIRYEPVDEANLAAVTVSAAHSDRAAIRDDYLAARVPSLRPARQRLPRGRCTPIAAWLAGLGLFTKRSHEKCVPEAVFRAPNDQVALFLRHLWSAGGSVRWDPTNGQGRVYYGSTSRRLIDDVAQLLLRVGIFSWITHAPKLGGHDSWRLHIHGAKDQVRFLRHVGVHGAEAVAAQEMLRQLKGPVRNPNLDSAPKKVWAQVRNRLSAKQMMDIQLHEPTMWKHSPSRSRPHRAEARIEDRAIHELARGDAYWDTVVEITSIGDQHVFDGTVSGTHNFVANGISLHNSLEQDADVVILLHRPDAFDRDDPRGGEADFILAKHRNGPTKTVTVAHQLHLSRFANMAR

[3] = target: E3 ubiquitin-protein ligase UHRF1 (Homo sapiens, UniProt Q96T88); assay: Counterscreen for inhibitors of 5-meCpG-binding domain protein 2 (MBD2): TRFRET-based biochemical high throughput dose response assay to identify inhibitors of binding of ubiquitin-like with PHD and ring finger domains 1 (UHRF1) to methylated oligonucleotide.
Caspase-6 = target: T2, Caspase-6 (Homo sapiens, UniProt P55212); assay: inhibition of CASP6 peptide cleavage – biochemical, VEID-R110 fluorescence, cherry-pick, dose response (AID 720632)
T2 sequence (P55212 whole entry): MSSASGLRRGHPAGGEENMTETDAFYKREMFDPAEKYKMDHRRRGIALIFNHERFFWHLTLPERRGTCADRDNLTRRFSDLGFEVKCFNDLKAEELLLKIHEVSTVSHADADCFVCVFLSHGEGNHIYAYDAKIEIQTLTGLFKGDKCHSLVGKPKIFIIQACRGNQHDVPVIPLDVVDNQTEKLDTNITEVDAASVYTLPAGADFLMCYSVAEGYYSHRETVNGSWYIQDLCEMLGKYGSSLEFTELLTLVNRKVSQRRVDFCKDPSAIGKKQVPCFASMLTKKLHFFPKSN

Protein RecA = target: T3, Protein RecA (Mycobacterium tuberculosis, UniProt P9WHJ3); assay: Fluorescence Cell-Free Homogeneous Dose Retest to Identify Inhibitors of RecA-Intein Splicing Activity. [Related pubchem assays (depositor defined):AID2097, AID2223, AID489010, AID492950]; type: functional
T3 sequence (P9WHJ3 whole entry): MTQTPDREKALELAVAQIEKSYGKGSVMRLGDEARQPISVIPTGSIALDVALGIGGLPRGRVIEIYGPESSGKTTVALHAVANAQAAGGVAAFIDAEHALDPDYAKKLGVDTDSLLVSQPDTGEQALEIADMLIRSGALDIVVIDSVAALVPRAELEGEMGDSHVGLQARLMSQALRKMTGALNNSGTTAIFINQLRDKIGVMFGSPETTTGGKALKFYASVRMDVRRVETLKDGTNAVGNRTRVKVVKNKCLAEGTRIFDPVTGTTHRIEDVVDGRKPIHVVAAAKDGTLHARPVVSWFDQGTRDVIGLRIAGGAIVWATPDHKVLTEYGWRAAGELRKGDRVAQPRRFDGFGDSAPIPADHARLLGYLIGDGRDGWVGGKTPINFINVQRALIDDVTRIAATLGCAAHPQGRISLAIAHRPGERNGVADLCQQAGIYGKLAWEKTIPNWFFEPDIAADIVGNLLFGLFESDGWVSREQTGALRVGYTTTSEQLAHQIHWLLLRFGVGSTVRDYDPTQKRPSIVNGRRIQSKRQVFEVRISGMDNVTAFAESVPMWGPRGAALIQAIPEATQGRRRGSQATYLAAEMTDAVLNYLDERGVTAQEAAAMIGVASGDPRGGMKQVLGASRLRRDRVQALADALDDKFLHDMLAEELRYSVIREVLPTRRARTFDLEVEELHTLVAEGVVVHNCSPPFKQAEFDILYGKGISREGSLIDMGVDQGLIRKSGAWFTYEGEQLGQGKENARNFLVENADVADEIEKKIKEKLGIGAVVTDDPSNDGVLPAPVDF

Streptococcus = assay: GAS UMAA2166 growth inhibition – luminescence, BacTiterGlo, counter-screen for streptokinase expression inhibitor project, dose response (AID 1915); type: functional, organism-based;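 further: potency for reduction of bacterial viability or growth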
[4] = test system: Streptococcus sp. 'group A'; assay: Streptococcus pyogenes SK(-)GAS viability under kanamycin – luminescence, BacTiterGlo, confirmation, counter-screen for streptokinase expression inhibitor project, dose response (AID 1900); type: functional, organism-based
[5] = Intein inhibitors as potential Tuberculosis drugs, a cytotoxicity screen. [Related pubchem assays (depositor defined):AID2221, AID2223, AID434968, AID435010, AID449749, AID449750, AID489010]; type: functional
Streptokinase A = target: T4, Streptokinase A (Streptococcus pyogenes serotype M1, UniProt P10520); assay: viability-normalized secreted streptokinase activity reduction – plasminogen activation absorbance, OD405, dose response (AID 1914); type: functional, Streptococcus pyogenes M1 GAS;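 further: secreted streptokinase activity via plasminogen activation per viability signal from cell pellet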
T4 sequence (P10520 whole entry): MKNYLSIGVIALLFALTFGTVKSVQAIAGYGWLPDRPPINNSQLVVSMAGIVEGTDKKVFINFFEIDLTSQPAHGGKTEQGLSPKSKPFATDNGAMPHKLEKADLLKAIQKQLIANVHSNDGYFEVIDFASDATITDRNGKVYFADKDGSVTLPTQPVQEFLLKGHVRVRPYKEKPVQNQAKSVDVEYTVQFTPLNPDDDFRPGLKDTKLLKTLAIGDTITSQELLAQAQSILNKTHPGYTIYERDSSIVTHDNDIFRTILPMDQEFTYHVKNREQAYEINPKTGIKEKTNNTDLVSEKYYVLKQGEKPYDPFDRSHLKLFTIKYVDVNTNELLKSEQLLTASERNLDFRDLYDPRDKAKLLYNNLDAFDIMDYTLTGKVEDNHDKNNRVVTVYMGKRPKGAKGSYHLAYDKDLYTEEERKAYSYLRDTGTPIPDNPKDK

[6] = target: RNA-editing ligase 1, mitochondrial (Trypanosoma brucei brucei, UniProt P86926); assay: inhibition of trypanosome RNA editing ligase – biochemical, fluorescence, Trypanosoma brucei, dose response (AID 1117295); type: functional
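Wherever CC50 is given: cells exposed to compound for 72 hours before luminescence readout.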

RNA-editing ligase 1, mitochondrial, sequence (P86926 whole entry): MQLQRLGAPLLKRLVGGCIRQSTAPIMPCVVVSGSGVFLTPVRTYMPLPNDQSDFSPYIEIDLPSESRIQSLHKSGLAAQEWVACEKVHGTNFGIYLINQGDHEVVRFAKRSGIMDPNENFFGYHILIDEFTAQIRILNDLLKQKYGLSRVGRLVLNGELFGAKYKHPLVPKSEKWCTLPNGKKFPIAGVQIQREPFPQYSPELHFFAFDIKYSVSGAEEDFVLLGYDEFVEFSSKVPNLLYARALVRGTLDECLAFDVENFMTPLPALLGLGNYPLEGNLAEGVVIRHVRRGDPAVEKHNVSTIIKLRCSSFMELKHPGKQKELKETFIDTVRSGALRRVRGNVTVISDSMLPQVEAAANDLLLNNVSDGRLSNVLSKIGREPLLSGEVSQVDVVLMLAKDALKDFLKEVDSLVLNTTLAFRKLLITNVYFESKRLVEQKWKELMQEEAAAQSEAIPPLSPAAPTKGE
E3 ubiquitin-protein ligase UHRF1, sequence (Q96T88 whole entry, the tested form may be a part): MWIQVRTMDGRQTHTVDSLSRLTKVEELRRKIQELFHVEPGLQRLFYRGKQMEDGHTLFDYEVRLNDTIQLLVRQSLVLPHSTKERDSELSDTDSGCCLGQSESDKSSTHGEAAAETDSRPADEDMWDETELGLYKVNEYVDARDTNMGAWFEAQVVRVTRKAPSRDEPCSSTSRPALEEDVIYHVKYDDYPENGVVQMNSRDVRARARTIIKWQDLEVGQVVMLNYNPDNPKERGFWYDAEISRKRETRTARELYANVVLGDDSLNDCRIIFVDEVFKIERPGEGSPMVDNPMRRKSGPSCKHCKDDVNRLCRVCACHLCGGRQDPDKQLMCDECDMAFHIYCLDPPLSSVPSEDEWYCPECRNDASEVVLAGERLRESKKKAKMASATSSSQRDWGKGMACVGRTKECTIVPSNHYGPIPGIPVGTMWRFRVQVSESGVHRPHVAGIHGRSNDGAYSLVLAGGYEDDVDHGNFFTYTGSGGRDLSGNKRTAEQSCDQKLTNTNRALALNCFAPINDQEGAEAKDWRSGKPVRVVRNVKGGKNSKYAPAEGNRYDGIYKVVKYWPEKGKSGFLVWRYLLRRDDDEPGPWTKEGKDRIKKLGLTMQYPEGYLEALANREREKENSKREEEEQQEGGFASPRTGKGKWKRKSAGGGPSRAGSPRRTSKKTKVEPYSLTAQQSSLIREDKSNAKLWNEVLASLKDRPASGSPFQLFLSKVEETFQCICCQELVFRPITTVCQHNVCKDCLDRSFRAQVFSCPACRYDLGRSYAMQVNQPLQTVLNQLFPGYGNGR

O=C(c1ccc2c(c1)OCO2)N1CCN(c2ccc(S(=O)(=O)C(F)F)cc2)CC1
AC50 [1]: 16.7 µM (active)

CCN(CC)CCNC(=O)c1ccc2c(c1NCCO)C(=O)c1ccccc1C2=O
AC50 (INS1): 4.09 µM (active)
AC50 [2]: 4.5 µM (active)
IC50 [3]: > 43.8 µM (inactive)
AC50 (Caspase-6): 5.96 µM (active)
EC50 (Protein RecA): 0.524 µM (active)
EC50 (Streptococcus): > 150 µM (not active)
EC50 [4]: 12.9 µM (active)
CC50 [5]: 26.2 µM (active)
EC50 (Streptokinase A): > 150 µM (not active)

C=CCNC1=NC(c2ccccc2C(F)(F)F)C(C(=O)OC)=C(C)N1Cc1cccc(C(F)(F)F)c1 (stereo unspecified)
IC50 [6]: > 96.6 µM (inactive)
